# Measured values from patent publication US10174067B2, “Type of cytidine derivative and application thereof” (priority 2014, dated 2019).
# Marks after values point to notes of the source that are not given here.
# Columns and labels:
# [1] = tested on: HCT-116 colon cancer xenografts; assay: Tumor growth inhibition of HCT-116 colon cancer xenografts in tumor-bearing nude mice (tumor volume, TGI %, RTV, T/C %); format: in vivo, Balb/c Nude mice; conditions: for T/C % (relative tumor proliferation rate): single-dose intraperitoneal, dosage mg/kg: G3, G4, G8 350, G5, G9 325, G6 300, G7 250;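 for T/C % (relative tumor proliferation rate): control C is the vehicle-treated model control group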
# In short: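 Nude mice inoculated with HCT-116 cells (about 3×10^7 cells/mL in serum-free medium). Tumor diameter measured three times weekly and volume computed as V=3/4π(D/2)^3. Activity expressed as TGI (%) and T/C (%) from relative tumor volume Vt/V0, with V0 taken at grouping and dosing start; P<0.05 significant.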
# ICR mice = assay: in vivo; conditions: female ICR mice; single-dose ip
# In short: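 Female SPF ICR mice received a single ip dose in ethanol/Cremophor EL/saline (5:5:90), with dose lowered after deaths and raised otherwise. MTD defined as dose causing no death, no >10% weight loss versus Day 0 and no significant side effects; daily weights and twice-daily clinical observation over 7-14 days.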
# [2] = In short: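 Female SPF Balb/c nude mice bearing subcutaneous HCT-116 xenografts (3×10^6 cells, right hind limb), grouped at 60–150 mm^3, 6 per group; vehicle ethanol/Cremophor EL/saline 5:5:90. Body weight thrice weekly; tumours excised and weighed at sacrifice; Mean±SEM, unpaired t-test, P<0.05.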
# [3] = Day 0, G3-G9 groups, single IP dose, Mean±SEM
# [4] = Day 4, G3-G9 groups, single IP dose, Mean±SEM
# [5] = Day 6, G3-G9 groups, single IP dose, Mean±SEM
# [6] = Day 8, G3-G9 groups, single IP dose, Mean±SEM
# [7] = Day 11, G3-G9 groups, single IP dose, Mean±SEM
# [8] = Day 13, G3-G9 groups, single IP dose, Mean±SEM
# [9] = Day 15, G3-G9 groups, single IP dose, Mean±SEM
# [10] = Day 18, G3-G9 groups, single IP dose, Mean±SEM
# [11] = Day 20, G3-G9 groups, single IP dose, Mean±SEM
# [12] = Day 22, G3-G9 groups, single IP dose, Mean±SEM
smiles,measurement,setting,value
"CCCCOC(=O)Nc1nc(=O)n([C@@H]2O[C@H](CO)[C@@H](O)C2(F)F)cc1Br [Compound G6, 5-Br-4-N-(n-butoxycarbonyl)-2′-deoxy-2′,2′-difluorocytidine]",Day 0 (RTV),[1]; [3],1.00 ± 0.00
same,"Tumor volume, Day 0",[1]; [3],80.31 ± 24.42* mm^3
same,T/C % (relative tumor proliferation rate),[1]; Day 0,0.09%
same,Day 4 (TGI %),"[1]; Day 4, G3-G9 groups, single IP dose",82.09%
same,Day 4 (RTV),[1]; [4],1.42 ± 0.00
same,"Tumor volume, Day 4",[1]; [4],47.71 ± 0.00 mm^3
same,T/C % (relative tumor proliferation rate),[1]; Day 4,75.54%
same,Day 6 (TGI %),"[1]; Day 6, G3-G9 groups, single IP dose",84.52%
same,Day 6 (RTV),[1]; [5],1.95 ± 0.00
same,"Tumor volume, Day 6",[1]; [5],65.45 ± 0.00 mm^3
same,T/C % (relative tumor proliferation rate),[1]; Day 6,64.68%
same,Day 8 (TGI %),"[1]; Day 8, G3-G9 groups, single IP dose",78.47%
same,Day 8 (RTV),[1]; [6],3.38 ± 0.00
same,"Tumor volume, Day 8",[1]; [6],113.10 ± 0.00 mm^3
same,T/C % (relative tumor proliferation rate),[1]; Day 8,89.68%
same,Day 11 (TGI %),"[1]; Day 11, G3-G9 groups, single IP dose",72.53%
same,Day 11 (RTV),[1]; [7],6.59 ± 0.00
same,"Tumor volume, Day 11",[1]; [7],220.89 ± 0.00 mm^3
same,T/C % (relative tumor proliferation rate),[1]; Day 11,110.90%
same,Day 13 (TGI %),"[1]; Day 13, G3-G9 groups, single IP dose",67.12%
same,Day 13 (RTV),[1]; [8],11.39 ± 0.00
same,"Tumor volume, Day 13",[1]; [8],381.70 ± 0.00 mm^3
same,T/C % (relative tumor proliferation rate),[1]; Day 13,132.45%
same,Day 15 (TGI %),"[1]; Day 15, G3-G9 groups, single IP dose",50.67%
same,Day 15 (RTV),[1]; [9],20.80 ± 0.00
same,"Tumor volume, Day 15",[1]; [9],696.91 ± 0.00 mm^3
same,T/C % (relative tumor proliferation rate),[1]; Day 15,198.59%
same,Day 18 (TGI %),"[1]; Day 18, G3-G9 groups, single IP dose",22.38%
same,Day 18 (RTV),[1]; [10],42.88 ± 0.00
same,"Tumor volume, Day 18",[1]; [10],1436.76 ± 0.00 mm^3
same,T/C % (relative tumor proliferation rate),[1]; Day 18,311.29%
same,Day 20 (TGI %),"[1]; Day 20, G3-G9 groups, single IP dose",16.62%
same,Day 20 (RTV),[1]; [11],52.73 ± 0.00
same,"Tumor volume, Day 20",[1]; [11],1767.15 ± 0.00 mm^3
same,T/C % (relative tumor proliferation rate),[1]; Day 20,332.56%
same,Day 22 (TGI %),"[1]; Day 22, G3-G9 groups, single IP dose",18.00%
same,Day 22 (RTV),[1]; [12],64.00 ± 0.00
same,"Tumor volume, Day 22",[1]; [12],2144.66 ± 0.00 mm^3
same,T/C % (relative tumor proliferation rate),[1]; Day 22,329.10%
same,"dose that could be tolerated (maximum tolerated dose, MTD)",ICR mice,200 mg/kg
same,"Weight change rate, Day 0",[2]; [3],0.00 ± 0.00%
same,"Weight of mice, Day 0",[2]; [3],21.47 ± 0.65 g
same,"Weight change rate, Day 4",[2]; [4],0.00 ± 0.00%
same,"Weight of mice, Day 4",[2]; [4],19.30 ± 0.00 g
same,animals died on Day 4 after administration,"[2]; Day 4, G4 350 mg/kg, G8 350 mg/kg, G6 300 mg/kg, single IP, 6 mice a group",Five
same,"Weight change rate, Day 6",[2]; [5],0.52 ± 0.00%
same,"Weight of mice, Day 6",[2]; [5],19.40 ± 0.00 g
same,"Weight change rate, Day 8",[2]; [6],1.55 ± 0.00%
same,"Weight of mice, Day 8",[2]; [6],19.60 ± 0.00 g
same,"Weight change rate, Day 11",[2]; [7],6.22 ± 0.00%
same,"Weight of mice, Day 11",[2]; [7],20.50 ± 0.00 g
same,"Weight change rate, Day 13",[2]; [8],7.77 ± 0.00%
same,"Weight of mice, Day 13",[2]; [8],20.80 ± 0.00 g
same,"Weight change rate, Day 15",[2]; [9],8.29 ± 0.00%
same,"Weight of mice, Day 15",[2]; [9],20.90 ± 0.00 g
same,"Weight change rate, Day 18",[2]; [10],5.18 ± 0.00%
same,"Weight of mice, Day 18",[2]; [10],20.30 ± 0.00 g
same,"Weight change rate, Day 20",[2]; [11],4.66 ± 0.00%
same,"Weight of mice, Day 20",[2]; [11],20.20 ± 0.00 g
same,"Weight change rate, Day 22",[2]; [12],6.22 ± 0.00%
same,"Weight of mice, Day 22",[2]; [12],20.50 ± 0.00 g
same,Day 22 Mortality,"[2]; Day 22, single IP dose (mg/kg)",83%
